How the values were obtained:
alopecia = details: humans and murine models; NCT02974868; cited from earlier work
[1] = test system: keratoconjunctivitis and dry eye disease; details: humans and/or dogs; Kravetz de Oliveira 2019; cited from earlier work
dry eye = details: murine model; Sadrai et al 2012; cited from earlier work
[2] = test system: psoriasis, alopecia, uveitis; details: murine models; Mesa 2010, Falto-Aizpurua et al 2014, Lin et al 2021; cited from earlier work
[3] = test system: psoriasis, alopecia, dermatitis, dry eye disease; details: humans and/or murine models; literature; cited from earlier work
[4] = target: T1, glucocorticoid receptor (GR) (Homo sapiens, UniProt P04150); assay: Glucocorticoid Binding Assay, GR (h) (agonist radioligand); details: IM9 cytosol, 3H-dexamethasone competitive binding
T1 construct: by mixing 1 mg of IM9 cytosol; host or cells: IM9 human lymphoblast cell cytosol
T1 sequence (P04150 1-777): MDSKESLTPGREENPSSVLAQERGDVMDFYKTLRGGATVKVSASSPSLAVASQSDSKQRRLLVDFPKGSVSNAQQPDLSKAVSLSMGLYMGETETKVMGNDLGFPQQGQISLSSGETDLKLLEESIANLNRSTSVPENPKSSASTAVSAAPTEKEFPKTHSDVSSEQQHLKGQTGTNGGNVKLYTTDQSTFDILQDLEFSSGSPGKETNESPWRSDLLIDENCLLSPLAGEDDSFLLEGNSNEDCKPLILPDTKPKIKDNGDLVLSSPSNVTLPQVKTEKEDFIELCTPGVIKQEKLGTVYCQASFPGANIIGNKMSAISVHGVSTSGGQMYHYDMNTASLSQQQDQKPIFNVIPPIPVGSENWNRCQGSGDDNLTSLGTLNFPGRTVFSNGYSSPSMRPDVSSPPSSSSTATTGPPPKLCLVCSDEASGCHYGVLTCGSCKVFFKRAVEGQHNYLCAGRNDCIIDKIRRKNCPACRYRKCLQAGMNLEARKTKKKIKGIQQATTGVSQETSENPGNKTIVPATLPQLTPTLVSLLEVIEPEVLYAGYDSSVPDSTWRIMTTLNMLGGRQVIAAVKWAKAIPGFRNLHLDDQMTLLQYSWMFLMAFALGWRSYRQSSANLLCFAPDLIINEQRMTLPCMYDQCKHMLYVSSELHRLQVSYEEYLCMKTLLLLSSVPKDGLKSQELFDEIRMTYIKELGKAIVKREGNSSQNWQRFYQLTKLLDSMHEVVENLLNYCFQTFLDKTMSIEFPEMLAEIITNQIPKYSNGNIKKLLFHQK
Experimental: GR (h) (agonist radioligand) assay performed by Eurofins Cerep, France using a method similar to the one described hereinbelow.
The human lymphoblast cell line IM9 is used as a source of the soluble glucocorticoid receptor (GR). The cells are grown to densities of 1 to 10×10^5 cells per milliliter in RPMI 1640 media containing 10% fetal bovine serum, penicillin (100 U/ml), streptomycin (100 μg/ml), and 2 mM L-glutamine at […] and 7% CO2 in a humidified incubator. The IM9 cells are harvested from the media by centrifugation for 10 minutes at 1500 g. Cells are washed in 12 volumes of Dulbecco's phosphate-buffered saline (PBS) and re-pelleted. Washed cells are resuspended in five to six volumes (per volume of packed cells) of homogenization buffer (10 mM TES, 10 mM sodium molybdate, 1 mM EDTA, pH 7.4, 20 mM 2-mercaptoethanol, and 10% glycerol), and the cells are broken by nitrogen cavitation using 2×15 minutes at 600 to 750 psi nitrogen in the N2 cavitator at 0° C. Cell disruption is confirmed by Hoffman contrast microscopy using a Nikon Diaphot. The broken cell preparation is then centrifuged at 27,000 g for 15 minutes, and the resultant supernatant was centrifuged at 103,000 g for 60 minutes at 4° C. The amount of protein in the supernatant fraction is determined using a BCA assay kit with a bovine serum albumin standard. Aliquots of the supernatant fraction are snap frozen in a dry ice-acetone bath and stored at −70° C. Competitive binding assays are done in duplicate in homogenization buffer (total volume of […]) by mixing 1 mg of IM9 cytosol, 0.05/ρCi (3 nM) of ^3H-dexamethasone, and Compounds described herein (10^−5 to 10^−11 M). After incubation at 0° C. for 16 to 18 hours, the assay is stopped by the addition of […] of a charcoal-dextran mixture (2% activated charcoal, 0.5% dextran in 10 mM Tris, 1 mM EDTA, pH 7.4). The assay mixture is further incubated at 0° C. for 10 minutes before being centrifuged for 5 minutes at 8200 g. A 100-μl sample of the supernatant (protein-bound steroid fraction) is assayed for radioactivity by liquid scintillation spectrometry, and the IC50 values were determined graphically.
In some instances, an ester is active in the glucocorticoid binding assay. In some instances, an ester retains activity, such as when attached to a keratolytic agent (or a radical thereof), in the glucocorticoid binding assay.

[5] = test system: dermatitis, keratoconjunctivitis, dry eye disease; details: humans and/or dogs; literature; cited from earlier work
uveitis = details: humans and/or murine models; Gangaputra 2009; cited from earlier work
Rabbit Cornea Esterase = assay: Rabbit Cornea Homogenate Stability Assay (Rabbit Cornea Esterase Assay); format: in vitro ADME; details: Table 13, rabbit breed not given
Experimental: Example 1: Rabbit Cornea Homogenate Stability Assay […]
Three to four rabbit corneas (e.g., New Zealand Whites (NZW) or Dutch Belted (DB)) of approx. 50 mg each were sliced and scraped with a scalpel and tweezers until reduced to small (1-3 mm), thin pieces. These were transferred into a glass vial containing approximately 2 mL of cold DPBS pH 7.4 buffer.
Sample was cooled intermittently on ice and shear homogenized for 3 minutes, then centrifuged for 3 min at 13,000 g. The supernatant was pipetted off into a vial, and total protein concentration determined at 280 nm. Sample was stored at −78° C.
10 mM Compound DMSO stocks were diluted to 10 μM in a glass vial: 10 μL of 10 mM Compound stock was added to 9,990 μl 50 mM DPBS, pH 7.4 buffer. Esterase homogenate was diluted to 300 ng/μl and 900 ng/μL in DPBS.
A heater shaker was set to 37° C. Into a suitable 96 well plate (Run Plate), 70 μL of 300 or 900 ng/μl esterase homogenate was pipetted into two rows as compounds were analyzed in duplicate (2 min, 5 min, 10 min, 20 min and 45 min). The plate was sealed and then warmed at 37° C. for 5 min.
Two 96 deep-well plates were put on ice (Kill Plates). To these, 990 μL of 50:50 MeCN—H2O were added to required rows, labelled 0 min 2 min, 5 min, 10 min, 20 min and 45 min. The plates were covered to minimize evaporation.
To both rows of the Run Plate, 70 μL of 10 μM compound solution was added. At the appropriate time point, 10 μL of the assay mixture was added to the matching kill plate well containing 990 μL of 50:50 cold MeCN—H2O. Samples were analyzed as soon as practicable by UPLC-MS (Waters Xevo TQ-S).
A heater shaker was set to 37° C. Into a suitable 96 well plate (Run Plate), 80 μL of 300 or 900 ng/μL esterase homogenate was pipetted into two rows as compounds were analyzed in duplicate (2 min, 5 min, 10 min, 20 min and 45 min). The plate was sealed and then warmed at 37° C. for 5 min.
Two 96 shallow-well plates were placed on ice (Kill Plates). To these, 180 μL of 60:40 MeCN-H2O+0.1% acetic acid are added to required rows. The plates were sealed to minimize evaporation.
To both rows of the Run Plate, 80 μL of 10 μM compound solution was added. At the appropriate time point, 20 μL of the assay mixture was added to the matching kill plate well containing 180 μL of 60:40 cold MeCN-H2O+0.1% acetic acid. For lipoic acid analysis, samples were analyzed as soon as practicable by LCMS (Waters Xevo TQ-S). For parent conjugate and parent analysis the samples are diluted further 1 in 10: 20 μL supernatant is added to 180 μL of 50:50 MeCN—H2O.

## C=CC(=O)N1C[C@H](Nc2ncnc3[nH]ccc23)CC[C@@H]1C [Ritlecitinib, 1-((2S,5R)-5-((7H-pyrrolo[2,3-d]pyrimidin-4-yl)amino)-2-methylpiperidin-1-yl)prop-2-en-1-one]
alopecia
  objective signs of alopecia: improvements in objective signs

## C=CC[C@H]1/C=C(/C)C[C@@H](C)C[C@@H](OC)[C@@H]2O[C@@](O)(C(=O)C(=O)N3CCCCC3C(=O)O[C@H](/C(C)=C/[C@@H]3CC[C@@H](O)[C@H](OC)C3)[C@H](C)[C@@H](O)CC1=O)[C@H](C)C[C@@H]2OC (single isomer, unassigned; (-)) [Tacrolimus]
[1]
  objective signs of keratoconjunctivitis and dry eye disease: improvements in objective signs

## COc1ccc([C@]2(C#N)CC[C@@H](C(=O)O)CC2)cc1OC1CCCC1 [Cilomilast, cis-4-cyano-4-[3-(cyclopentyloxy)-4-methoxyphenyl]cyclohexanecarboxylic acid]
Dry eye
  objective signs of dry eye: improvements in objective signs

## N#CC[C@H](C1CCCC1)n1cc(-c2ncnc3[nH]ccc23)cn1 [Ruxolitinib, (3R)-3-Cyclopentyl-3-[4-(7H-pyrrolo[2,3-d]pyrimidin-4-yl)pyrazol-1-yl]propanenitrile]
[2]
  objective signs of psoriasis, alopecia and uveitis: improvements in objective signs

## C[C@@H]1CCN(C(=O)CC#N)C[C@@H]1N(C)c1ncnc2[nH]ccc12 [Tofacitinib, 3-[(3R,4R)-4-Methyl-3-[methyl(7H-pyrrolo[2,3-d]pyrimidin-4-yl)amino]piperidin-1-yl]-3-oxopropanenitrile]
[3]
  objective signs of psoriasis, alopecia, dermatitis and dry eye disease: improvements in objective signs

## CC(=O)N1[C@H](C(=O)O[C@]2(C(=O)O)[C@H](C)C[C@H]3[C@@H]4C[C@H](F)C5=CC(=O)C=C[C@]5(C)[C@@]4(F)[C@@H](O)C[C@@]32C)CSC1(C)C [Chemical Synthesis Example 70, (6S,8S,9R,10S,11S,13S,14S,16R,17R)-17-(((R)-3-Acetyl-2,2-dimethylthiazolidine-4-carbonyl)oxy)-6,9-difluoro-11-hydroxy-10,13,16-trimethyl-3-oxo-6,7,8,9,10,11,12,13,14,15,16,17-dodecahydro-3H-cyclopenta[a]phenanthrene-17-carboxylic acid]
[4]
  EC50: > 100 nM

## C[C@]12C=CC(=O)C=C1CC[C@H]1[C@@H]3CC[C@](OC(=O)CCCC[C@@H]4CCSS4)(C(=O)OCCl)[C@@]3(C)C[C@H](O)[C@@]12F
[4]
  EC50: 0.35 nM

## CNS(=O)(=O)C[C@H]1CC[C@H](N(C)c2ncnc3[nH]ccc23)CC1 [Oclacitinib, N-methyl{trans-4-[methyl(7H-pyrrolo[2,3-d]pyrimidin-4-yl)amino]cyclohexyl}methanesulfonamide]
[5]
  objective signs of dermatitis, keratoconjunctivitis and dry eye disease: improvements in objective signs

## CN(Cc1cnc2nc(N)nc(N)c2n1)c1ccc(C(=O)N[C@@H](CCC(=O)O)C(=O)O)cc1 [methotrexate, (2S)-2-[(4-{[(2,4-Diaminopteridin-6-yl)methyl](methyl)amino}benzoyl)amino]pentanedioic acid]
uveitis
  objective signs of uveitis: improvements in objective signs

## C[C@@H]1C[C@H]2[C@@H]3C[C@H](F)C4=CC(=O)C=C[C@]4(C)[C@@]3(F)[C@@H](O)C[C@]2(C)[C@@]1(OC(=O)CCCC[C@@H]1CCSS1)C(=O)OCC#N [Compound 73A, Cyanomethyl (6S,8S,9R,10S,11S,13S,14S,16R,17R)-17-((5-((R)-1,2-dithiolan-3-yl)pentanoyl)oxy)-6,9-difluoro-11-hydroxy-10,13,16-trimethyl-3-oxo-6,7,8,9,10,11,12,13,14,15,16,17-dodecahydro-3H-cyclopenta[a]phenanthrene-17-carboxylate]
Rabbit Cornea Esterase; rabbit cornea homogenate 0.15 mg/mL
  Esterase (0.15 mg/mL) % parent released after 45 min: A (<25%)
Rabbit Cornea Esterase; rabbit cornea homogenate 0.45 mg/mL
  Esterase (0.45 mg/mL) % parent released after 45 min: A (<25%)
[4]
  EC50: > 100 nM

From patent publication US20260055110A1 (Azura Ophthalmics Ltd., priority 2021, published 2026)
